We go through 1 compound from PubChem BioAssay AID488877 (The Scripps Research Institute Molecular Screening Center, 2010).

The source made the active and inactive calls. How the calls were made is not given here.

This assay relates to Vero cells SARS-CoV infected, viability, ATP luminescence. Briefly: PubChem AID 488877.

A word on the EC50: it is the concentration giving half of the maximal effect. As to `CC(C)(C)NC(=O)C(c1cccnc1)N(C(=O)c1ccco1)c1ccc(C(C)(C)C)cc1` (stereo unspecified), the EC50 was > 10 µM (inactive).
